PubChem BioAssay AID1645848
≈ marks a conversion by molar mass, not a printed value.

Conditions: buffer; pH 7.4; 6.0 h; 150.0 µM

Row | SMILES | solubility kinetic
1 | CCOC(=O)C1=C(CN(CC)Cc2ccccc2)NC(=O)NC1c1ccc(OC(C)C)cc1 (centres undefined) | < 1 µg/mL
2 | COc1cccc(CNc2ccc(S(=O)(=O)Nc3ccc(C)nc3)cc2)c1O | 16.5 µg/mL (≈ 41.2 µM)
3 | COc1ccc(-c2csc(N3CCC(C(N)=O)CC3)n2)cc1 | > 47 µg/mL
4 | CCC(CC)c1cc([C@H]2CN3CC[C@H]2C[C@@H]3CNC(C)=O)nc(-c2ccncc2)n1 | > 60 µg/mL
5 | Cc1cccc(NCc2ccc(O)c3ncccc23)c1 | < 1 µg/mL
6 | O=C(Cc1ccc2ccccc2c1)Nc1ccc(S(=O)(=O)Nc2nccs2)cc1 | 0.228 µg/mL (≈ 0.538 µM)
7 | COc1ccc(Nc2ncnc3c2cnn3-c2ccc(C)cc2)cc1Cl | 0.075 µg/mL (≈ 0.205 µM)
8 | c1ccc(Nc2cc(-c3ccoc3)ncn2)cc1 | 16.2 µg/mL (≈ 68.3 µM)
9 | COc1cccc2c1CCCC2CCCN1CCN(C2CCCCC2)CC1 (centres undefined) | > 55 µg/mL
10 | CN(C)c1cccc(-c2nc(N3CCC(C(N)=O)CC3)ncc2F)c1 | 42.6 µg/mL (≈ 124 µM)
11 | O=C(NCc1ccccc1)c1cn2cc(-c3ccccc3)sc2n1 | < 1 µg/mL
12 | O=c1[nH]cnc2nc[nH]c12 | 8.8 µg/mL (≈ 64.7 µM)
13 | CC1(C)CCC(c2ccc(Cl)cc2)=C(CN2CCN(c3ccc(C(=O)NS(=O)(=O)c4ccc(N[C@H](CCN5CCOCC5)CSc5ccccc5)c(S(=O)(=O)C(F)(F)F)c4)cc3)CC2)C1 | < 1 µg/mL
14 | NC(=O)C1CCN(c2nc(-c3cccc(N)c3)cs2)CC1 | > 45 µg/mL
15 | NC(=O)C1CCN(c2nc(-c3cccc([N+](=O)[O-])c3)cs2)CC1 | 28.4 µg/mL (≈ 85.3 µM)
16 | CSc1ccccc1N1CCN(CCCCCC(=O)NC2CCCc3ccccc32)CC1 (centres undefined) | 44.7 µg/mL (≈ 99 µM)
17 | O=C([C@@H]1CCCN(c2ccc3[nH]c(C4(n5cc(Cl)cn5)CC4)nc3n2)C1)N1CCCC1 | 27.2 µg/mL (≈ 61.8 µM)
18 | Cc1ccc(C(=O)Nc2ccc3oc(-c4cccnc4)nc3c2)cc1[N+](=O)[O-] | < 1 µg/mL
19 | CN1CCN(C(=O)Cc2c[nH]c3ncc(-c4ccccc4Oc4ccccc4)cc23)CC1 | > 42 µg/mL
20 | COc1ccc(-c2[nH]nc3ncc(-c4ccc(CO)cc4)nc23)cc1F | < 1 µg/mL
21 | CS(=O)(=O)c1ccc(-c2nnc(/C=C/c3nnc(-c4ccc(C#N)cc4)o3)n2-c2ccccc2Cl)nc1 | 4.17 µg/mL (≈ 7.86 µM)
22 | COc1ccc(-n2cnc3cc(C(=O)N4CCCCC4)ccc32)cc1 | > 50 µg/mL
23 | COC(=O)C1=COC(C)C2CN3CCc4c([nH]c5cc(OC)c(OC)cc45)C3CC12 (centres undefined) | 46.9 µg/mL (≈ 114 µM)
24 | O=C(Nc1ccc([S+](=O)([O-])Nc2nccs2)cc1)c1ccccn1 | 7.05 µg/mL (≈ 19.6 µM)
25 | COc1ccccc1CNc1ccc(S(=O)(=O)Nc2nccs2)cc1 | 37.4 µg/mL (≈ 99.7 µM)

Row | SMILES | solubility kinetic
26 | COc1ccc(Cn2c(=O)[nH]c3cc(C(=O)NCCCN4CCCCC4)ccc3c2=O)cc1 | > 67 µg/mL
27 | Cc1ccc(S(=O)(=O)Nc2ccccc2C(=O)Nc2nc(-c3ccccc3)c(Br)s2)cc1 | < 1 µg/mL
28 | CCCCCn1c(=O)[nH]c2cc(C(=O)NCCCN3CCCCC3)ccc2c1=O | > 59 µg/mL
29 | CCOc1ccc(CNc2ccc3c(c2)ncn3C)cc1 | > 42 µg/mL
30 | Clc1ccc(C2=Nn3c(nnc3-c3ccncc3)SC2)cc1 | 1.45 µg/mL (≈ 4.42 µM)
31 | CCOc1ccc(CCNC(=O)c2cc3ccncc3n2Cc2cccc(C)c2)cc1OCC | 55.7 µg/mL (≈ 122 µM)
32 | CC(=O)Nc1ccc(OCc2cn(CC(=O)c3ccc(O)cc3)nn2)cc1 | 18.7 µg/mL (≈ 51 µM)
33 | NCC(=O)Nc1cncc(-c2nn3c(=O)cc(N4CCNCC4)nc3s2)c1 | > 57 µg/mL
34 | CCc1ccc2oc(NC3=NC(c4[nH]ncc4Cl)C4=C(CCCC4=O)N3)nc2c1 (centres undefined) | < 1 µg/mL
35 | COc1cc2c(Nc3ccc(Br)cc3F)ncnc2cc1OCC1CCN(C)CC1 | > 70 µg/mL
36 | CN(C)c1ccccc1-c1csc(N2CCC(C(N)=O)CC2)n1 | > 49 µg/mL
37 | O=[S+]([O-])(Nc1nccs1)c1ccc(NCc2cccc(Cl)c2)cc1 | 2.53 µg/mL (≈ 6.67 µM)
38 | CCOC(=O)c1ccc(-n2c(C)cc(-c3nnc4n3CCCCC4)c2C)cc1 | > 56 µg/mL
39 | COc1ccc(CNc2ccc(S(=O)(=O)Nc3nccs3)cc2)c(O)c1 | 45.4 µg/mL (≈ 116 µM)
40 | CCS(=O)(=O)c1nc(-c2ccc(Cl)cc2)cc(C(F)(F)F)n1 | 8.53 µg/mL (≈ 24.3 µM)
41 | Cc1ccc(-n2ncc3c(NCCCn4ccnc4)ncnc32)cc1Cl | 4.07 µg/mL (≈ 11.1 µM)
42 | CCOC(=O)NNc1ccc(N(CC)CC(C)O)nn1 (centres undefined) | 4.72 µg/mL (≈ 16.7 µM)
43 | Fc1cccc(Nc2nc(-c3ccncc3)nc3ccccc23)c1F | < 1 µg/mL
44 | Cc1cc(/C=C2/C(=O)Nc3ccccc32)cc(C)c1O | < 1 µg/mL
45 | Cc1cccc(-n2ncc3c2CCCC3NC(=O)c2c(F)ccc(F)c2F)c1C (centres undefined) | 7.25 µg/mL (≈ 18.1 µM)
46 | Cc1cccc(CN2CCN(c3ccccn3)CC2)c1 | 30.9 µg/mL (≈ 115 µM)
47 | CCOc1ccc(CCNC(=O)c2ccc(C(=O)c3ccccc3)cc2)cc1OCC | < 1 µg/mL
48 | O=C1CCCC2=C1C1(CCSC1)N=C(Nc1nc3ccccc3o1)N2 (centres undefined) | < 1 µg/mL
49 | Cc1cc(SCC(=O)c2ccccc2)n2ncc(-c3ccccc3)c2n1 | < 1 µg/mL
50 | O=C(NCCCn1ccnc1)c1nc(-c2ccccc2)cc2[nH]ccc12 | > 77 µg/mL

Row | SMILES | solubility kinetic
51 | Cc1noc(C)c1-c1ccc2ncnc(NCc3cccc(Cl)c3)c2c1 | < 1 µg/mL
52 | CC(C(O)c1ccc(O)cc1)N1CCC(Cc2ccccc2)CC1 (centres undefined) | > 48 µg/mL
53 | O=c1c2c([nH]c3ccc(Br)cc13)CCCC2 | 4.86 µg/mL (≈ 17.5 µM)
54 | O=C(Nc1cccc(C(F)(F)F)c1)c1cc2nc(-c3ccccc3)cc(C(F)(F)F)n2n1 | < 1 µg/mL
55 | Cc1ccnc(NC(=S)N2CCN(c3cc(C(F)(F)F)cc(C(F)(F)F)c3)CC2)c1 | 6.7 µg/mL (≈ 14.9 µM)
56 | CC(C)(O)Cn1c(NC(=O)c2ccc(-c3cn[nH]c3)s2)nc2cc(CN3CCOCC3)ccc21 | 47 µg/mL (≈ 97.8 µM)
57 | Cc1ccccc1Nc1c(-c2ccccc2O)nc2sccn12 | < 1 µg/mL
58 | COc1ccc(NC(=O)c2cc(-c3ccc[nH]3)n[nH]2)cc1OC | > 31 µg/mL
59 | O=S(=O)(c1ccc2ccccc2c1)N1CCN(c2nc(-c3cccs3)nc3ccccc23)CC1 | < 1 µg/mL
60 | Cn1cnc2c(F)c(Nc3ccc(Br)cc3Cl)c(C(=O)NOCCO)cc21 | > 45 µg/mL
61 | CCc1oc2ccccc2c1C(=O)c1cc(I)c(O)c(I)c1 | > 77 µg/mL
62 | CC1=C(C(=O)Nc2nnc(-c3ccccc3)s2)C(c2nn(C)cc2Cl)N=C(Nc2nc3ccccc3o2)N1 (centres undefined) | < 1 µg/mL
63 | O=[S+]([O-])(Nc1cccc2cccnc12)c1ccc(NCc2ccc(Cl)cc2O)cc1 | < 1 µg/mL
64 | O=C(CCCc1ccc2cccnc2n1)NCc1cc(-c2ccc(F)c(C(F)(F)F)c2)no1 | 3.29 µg/mL (≈ 7.18 µM)
65 | COCCNCc1ccc(-c2cc3nccc(Oc4ccc(NC(=S)NC(=O)Cc5ccc(F)cc5)cc4F)c3s2)nc1 | < 1 µg/mL
66 | Fc1cnc(-c2ccccc2C(F)F)nc1NCc1ccc(-c2cccnc2)cc1 | < 1 µg/mL
67 | O=C(O)CCC(=O)Nc1nc(-c2ccccc2)cs1 | > 41 µg/mL
68 | O=C(CCc1ccccc1)NC(c1cccs1)c1cc(Cl)c2cccnc2c1O (centres undefined) | < 1 µg/mL
69 | CN1CCN(c2ccc(Nc3nn4c(=O)c5ccccc5nc4s3)cc2)CC1 | > 58 µg/mL
70 | Cc1nc(Sc2nnnn2C)c2c(-c3ccccc3)csc2n1 | 19.4 µg/mL (≈ 57.1 µM)
71 | Cc1cccc(-n2cnc3cc(C(=O)N4CCCCCC4)ccc32)c1 | 41.2 µg/mL (≈ 124 µM)
72 | O=C(c1cccs1)c1nonc1C(=O)c1cccs1 | < 1 µg/mL
73 | NC(=O)C1CCN(c2nc(-c3ccc(OC(F)(F)F)cc3)cs2)CC1 | < 1 µg/mL
74 | c1ccc(-c2cc(Nc3nc(-c4ccncc4)nc4ccccc34)n[nH]2)cc1 | < 1 µg/mL
